“Also recorded” adds a separate entry of the source. Structures can show the parent of a compound that is named as a salt. Where two headings read alike, the source gives them in different places.
Columns and labels:
male CD2F1 mice [1] = system: male CD2F1 mice
Method: Forty male CD2F1 mice weighing 20-22 g were acclimated for 1 week and randomly separated into 8 groups of five animals each with 5 animals per cage. On day 0 all groups of animals were injected i.v. in the tail vein with the drug or vehicle control and once daily thereafter for a period of 5 days. The volumes administered were varied based on individual animal weights. Mouse weights were recorded for each mouse on alternate days following injection and observations of clinical illness were recorded at least daily.

beagle dogs = assay: Repeated-dose i.v. toxicity in beagle dogs (Example 18)
Method: Conventional mitoxantrone was administered to beagle dogs (3/sex/group) at i.v. dosages of 0 (saline), 0.129 or 0.258 mg/kg (2.6 or 5 mg/m^2) on Days 1, 23, 43 and 65. […] Evaluations for compound-related effects were based on clinical observations, body weight, food consumption, ophthalmologic and ECG examination, clinical pathology, plasma drug concentrations, organ weights and gross and microscopic postmortem examinations.

male CD2F1 mice [2] = system: male CD2F1 mice; remark: listed apart in the source
Method: Thirty male CD2F1 mice weighing 20-22 g were acclimated for 1 week and randomly separated into 6 groups of five animals each with 5 animals per cage. On day 0 all groups of animals were injected i.v. in the tail vein with the drug or vehicle control and once daily thereafter for a period of 5 days. The volumes administered were varied based on individual animal weights. Mouse weights were determined for each mouse on alternate days following injection and observation for clinical illness were recorded at least daily.

in vivo [3] = settings: male, CD2F1, mouse, plasma, iv, 5 mg/kg
Method: Plasma and tissue samples were analyzed for mitoxantrone by reverse phase HPLC. Plasma samples (0.25 ml) were mixed with 0.5 ml of solution of 0.01 mg/ml hexanesulfonic acid, 0.5 mg/ml ascorbic acid, and 0.25 μg ametantrone as internal standard. After vortexing for 30 sec., 0.5 ml of 0.1 M borate buffer (pH 9.5) and 150 μl of 1 M sodium hydroxide was added and the solution vortexed again for 30 sec. […] The organic layer (9 ml) was separated and evaporated under nitrogen. Samples were reconstituted with 10 μl of mobile phase prior to HPLC analysis. Tissue samples were homogenized in 1 ml of solution containing 20% ascorbic acid in 0.1 M citrate buffer, pH 3.0, and extracted as described above. Mitoxantrone was separated by reverse-phase chromatography (Waters μBondapak® C-18) using a mobile phase of 33% acetonitrile, and 67% 0.16 M ammonium formate buffer, pH 2.7 delivered at a flow rate of 1 ml/min. Mitoxantrone was detected at 600 nm. The limit of sensitivity was 10 ng/ml.
Plasma Pharmacokinetic parameters were assessed by standard methods. The elimination rate constant (K) was calculated from the linear regression analysis of plasma concentration-time curve. The area under the curve (AUC0→∞) was calculated using the linear trapezoidal method with extrapolation of the terminal phase to infinity (Clast/K), where Clast is the last measured concentration. Other parameters calculated were total body clearance (Cl) as Dose/AUC; volume of distribution (Varea)=Cl/K; elimination half-life (t1/2)=0.693/Karea.

male CD2F1 mice [4] = system: male CD2F1 mice; remark: listed apart in the source
Method: Seventy male CD2F1 mice weighing 20-22 g were acclimated for 1 week and randomly separated into 7 groups of ten animals each with 5 animals per cage. On day 0 all groups of animals were injected i.v. in the tail vein with the drug or vehicle control. The volumes administered were varied based on individual animal weights. Mouse weights were recorded for each mouse on alternate days following injection and observation for clinical illness were recorded at least daily.

male CD2F1 mice [5] = settings: 25 mg/kg single i.v.
Method: Twenty male CD2F1 mice weighing 20-22 g were acclimated for 1 week and randomly separated into 4 groups of five animals each with 5 animals per cage. On day 0 all groups of animals were injected i.v. in the tail vein with the drug or vehicle control. The volumes administered were varied based on individual animal weights. Mouse weights were recorded for each mouse on alternate days following injection and observation for clinical illness were recorded at least daily.

[6] = Plasma pharmacokinetics in dogs (Example 17)
Method: (§1) Time points analyzed were 0, 5 and 30 min and 1, 2, 4, 8 and 24 h after a single dose administration.

in vivo [7] = settings: beagle, dog, plasma, iv, 0.26 mg/kg
Method: as §1

[8] = system: human hormone-refractory prostate tumor cells (PC-3)
Method: Male Balb/c, nu/nu, 6-8 week old mice were inoculated with 5×10^6 of human hormone-refractory prostate tumor cells (PC-3). Tumor growth was monitored twice a week until the tumor volumes were in the range of […]. Animals were then divided into groups and were treated by i.v. injection via the tail vein with conventional mitoxantrone at doses of 0.625, 1.25, 2.5, and 5 mg/kg once every other day for four days. Doses of mitoxantrone formulated in liposomes were 2.5, 5, 7.5, and 10 mg/kg. Control animals received either normal saline or blank liposomes. The median survival time was calculated and all surviving animals were sacrificed on Day 34.
In these experiments tumor volumes were measured once or twice a week by measuring the three major axes.

L1210 leukemia cells = assay: L1210 ascitic leukemia survival, single dose (Example 14); format: in vivo, mice
Method: Murine leukemia cells, L1210 leukemia cells were grown in the peritoneum of CD2F1 mice by three serial propagations (i.p.). Ascites developed within eight days of the last inoculation were used in the following experiments. Cytostatic activities of liposomal and conventional formulations of mitoxantrone against L1210 ascitic leukemia was determined. Animal group weights were determined three times a week and clinically morbid animals were humanely sacrificed. The surviving mice were observed daily for 60 days. Group survival times post i.v. treatment with single or multiple doses of the drug was indicative of the relative anti-tumor potencies of liposomal and conventional mitoxantrone.
Female CD2F1 mice were divided into eight groups of 10 animals and inoculated i.v. with 10,000 L1210 cells. Drug was administered twenty-four hours later. Conventional mitoxantrone was administered at doses of 5 and 10 mg/kg. […] Surviving animals were sacrificed on day 60 of the experiment. Blank liposomes equivalent to the 35, mg/kg dose and normal saline was also administered as controls.

male CD2F1 mice [9] = system: male CD2F1 mice; remark: listed apart in the source
Method: Eighty male CD2F1 mice weighing 20-22 g were acclimated for 1 week and randomly separated into 8 groups of ten animals each with 5 animals per cage. On day 0 all groups of animals were injected i.v. in the tail vein with the drug or vehicle control. The volumes administered were varied based on individual animal weights. Mouse weights were recorded for each mouse on alternate days following injection and observation for clinical illness were recorded at least daily.

[10] = conventional 5 mg/kg, liposomal 10 mg/kg, daily x5

O=C1c2c(O)ccc(O)c2C(=O)c2c(NCCNCCO)ccc(NCCNCCO)c21 [conventional mitoxantrone, mitoxantrone hydrochloride]
animals that died (male CD2F1 mice [1]; 5 and 7.5 mg/kg daily x5): all of the animals
progressive weight loss (male CD2F1 mice [1]; 5 and 7.5 mg/kg daily x5, by day 7): about 25%
hepatocellular vacuolar degeneration (male CD2F1 mice [1]; 5 or 7.5 mg/kg daily x5, several mice): Some hepatocellular vacuolar degeneration
leukopenia in moribund-sacrificed mice (male CD2F1 mice [1]; conventional 5, 7.5 mg/kg, liposomal 7.5 mg/kg, daily x5): marked, clinically significant, compound related leukopenia
clinical signs (male CD2F1 mice [1]; day 6, conventional 2.5, 5, 7.5 mg/kg, liposomal 7.5 mg/kg, daily x5): ruffled fur and hunching behavior
morbidity or mortality (male CD2F1 mice [1]; liposomal any dose (2.5-7.5 mg/kg), conventional […], daily x5): no morbidity or mortality
hematology (beagle dogs; 0.129 and 0.258 mg/kg, 4 to 10 days following each dose cycle, dose related): leukopenia and thrombocytopenia
ECG parameters (beagle dogs; any examination time): no changes in ECG parameters
food consumption (beagle dogs; any groups): no changes in food consumption
coagulation or clinical chemistry parameters (beagle dogs; any of the dosage groups): No changes
anemia (beagle dogs; conventional: all animals, liposomal: female dogs): Anemia did not occur
body weight (beagle dogs; conventional: males at 0.258 mg/kg, liposomal: all dose groups, Days 1, 23, 43, 65): lost weight
tissue concentration, kidneys (5 mg/kg single i.v.): ~40 µg/g
tissue concentration, lungs (5 mg/kg single i.v.): approximately 20 μg/g
heart tissue concentration (5 mg/kg single i.v., 5 and 15 minutes): approximately 10 μg/g
heart concentration (peak) (5 mg/kg single i.v., 5 minutes): 11 µg/g
liver concentration after gradual decrease (5 mg/kg single i.v., end of time course): ~2 µg/g
liver concentration, initial (5 mg/kg single i.v., start of time course): approximately 19 μg/g
heart, lung and kidney concentrations, comparison of formulations (all time points, 5 mg/kg i.v.): higher
lethality (mice tested) (male CD2F1 mice [2]; 5 mg/kg daily x5): 100%
progressive weight loss (male CD2F1 mice [2]; 5 mg/kg daily x5, by day 9): about 35%
acute liver injury (ALT, AST, bilirubin) (male CD2F1 mice [2]; by day 8, conventional 5 mg/kg/day vs liposomal 10 mg/kg/day): roughly equivalent acute liver injury
AST and ALT in moribund sacrificed animals (male CD2F1 mice [2]; [10]): marked elevations in AST and ALT
leukopenia in moribund animals (male CD2F1 mice [2]; [10]): marked leukopenia
mice with bilirubin concentration greater than in control mice (male CD2F1 mice [2]; [10]): 3 of the 4
clinical signs (male CD2F1 mice [2]; conventional 2.5, 5 mg/kg, liposomal 10 mg/kg, daily x5): ruffled fur and hunching behavior
AUC (in vivo [3]): 140 ng·h/mL
Cmax (in vivo [3]): 410 ng/mL
Vd (in vivo [3]): 5.5 L/kg
clearance (in vivo [3]): 600 mL/min/kg
half-life (in vivo [3]): 6.6 min
initial weight loss (male CD2F1 mice [4]; 10 mg/kg single i.v., gradual recovery): 13%
morbidity (male CD2F1 mice [4]; 25 mg/kg single i.v.): 100%
ALT activities (male CD2F1 mice [4]; day 3, one mouse each: conventional 25 mg/kg, liposomal 35 mg/kg): modest increases in ALT activities
morbidity (male CD2F1 mice [5]): 100%
V ([6]; 0.26 mg/kg i.v., male dogs, mean): 2.8 L/kg
time point at which plasma concentrations could not be measured ([6]; high dose (0.26 mg/kg)): 30 min
Cmax (in vivo [7]; female): 60 ng/mL
Cmax (in vivo [7]; male): 84 ng/mL
clearance (in vivo [7]; male): 89 mL/min/kg
half-life (in vivo [7]; male): 21.6 min
survival by day 34 ([8]; 0.625 and 1.25 mg/kg i.v. once every other day): 100%
survival by day 34 ([8]; 2.5 and 5 mg/kg i.v. once every other day): no animals
toxicity in tumor-bearing mice ([8]; in vivo): Severe toxicity
median survival (L1210 leukemia cells; 5 mg/kg single i.v., 24 h after 10,000 L1210 cells i.v.): 12 days
animals alive at day 60 (L1210 leukemia cells; 10 mg/kg single i.v.): 2/10
median survival time (L1210 leukemia cells; 10 mg/kg single i.v.): 20 days
weight loss (male CD2F1 mice [9]; 10 mg/kg single i.v., by day 10, then gradual recovery): 20%
morbidity (male CD2F1 mice [9]; 15 mg/kg single i.v. dose): 100%
weight loss (male CD2F1 mice [9]; 15 mg/kg single i.v., by day 9/10): about 35%
ALT (male CD2F1 mice [9]; 15 mg/kg single i.v., day 10, hydrochloride): Clinically significant elevations in ALT; also recorded: significant increases in ALT
BUN (male CD2F1 mice [9]; 15 mg/kg single i.v., two mice): modest elevations in BUN
histopathology (male CD2F1 mice [9]; single i.v. dose, spleen and bone marrow): compound effects on hematopoietic and lymphoid tissues of the spleen and bone marrow
body weight course (remaining groups) (male CD2F1 mice [9]; single i.v., conventional 5 mg/kg, liposomal 5, 10, 15 mg/kg): gained weight steadily
